Measured values reported in BindingDB's records for doi:10.1021/jm00171a016 (University of Oregon, 1990).

Experiment: In vitro inhibitory activity against [3H]DTG binding to Sigma opioid receptor in guinea pig brain membrane homogenates

IC50 [nM]	Compound
6	Cc1ccccc1NC(N)=NC1CC2CCC1C2 (stereo not given)
6	NC(=Nc1ccccc1I)NC12CC3CC(CC(C3)C1)C2
12	Cc1ccccc1N=C(N)NC1CCCCC1
118	Cc1cc([N+](=O)[O-])ccc1NC(N)=Nc1cccc(O)c1
90	N=C(NCc1ccccc1)NCc1ccccc1
4	NC(=NC1CC2CCC1C2)Nc1ccccc1I (stereo not given)
760	Cc1cc([N+](=O)[O-])ccc1/N=C(/N)Nc1ccc([N+](=O)[O-])cc1C
540	NC(=Nc1ccc(Br)cc1)Nc1ccc(Br)cc1
37	Cc1cc([N+](=O)[O-])ccc1N=C(N)Nc1ccccc1C
207	Cc1ccccc1N=C(N)Nc1cccc(O)c1
